US20170099837A1, “EXTRACTS OF AGRICULTURAL HUSKS USED TO MODIFY THE METABOLISM OF PLANTS” (priority 2014, published 2017)

How the values were obtained:
Daphnia magna = assay: 48-h static toxicity test on Daphnia magna; conditions: in vivo
Protocol: In contrast, pure nitrated phenolic compounds such as p-nitrofenol show toxicities up to 125 times higher, measured as mean lethal concentration (CL50) over Daphnia magna or as concentration without observed effect (CSEO by its Spanish acronym).
The study was carried out to determine composition toxicity on Daphnia magna in a 48-h static test. Test concentrations were determined through a range test. Concentrations used for the definitive test were 62.5, 125, 250, 500 and 1000 mg/L, administered to the system, Daphnia magna, in fresh water. Three copies of 10 organisms were used for each concentration test. Control containers were used, placing 10 daphnides in fresh water without the composition. Dissolved oxygen, temperature, conductivity and pH were assessed at the beginning of the test and after each dose. Observations for immobility were made daily in a test chamber. The test ended after 48±1 hour of exposure. The concentration without observed effect (CSEO) of the composition was 250 mg/L and CE50 (Mean Effective Concentration) was determined higher than 1000 mg/L.

pepper bell seedlings = assay: Protection of pepper bell seedlings exposed to saline stress
Protocol: Protection offered by the composition in plants exposed to saline stress was observed through an assay with pepper bell seedlings, cultivar “npiter”. These seedlings were placed in germination plates with peat-moss as substrate and kept during a 40-day period and then transferred to 5-L pots. Adaptation period before treatment commencement consisted of daily irrigation during 10 days reaching saturation by a nutrient formulation based on 100-50-100 N-P-K at 1 mg/L concentrations. Used treatments in the assay were prepared in 100 L containers where NaCl was added until reaching a concentration of 25 mM/L, plus nutrients based on Hoagland formula (50% of its concentration). Irrigation frequency with this nutrient solution was every day, applying a 350 cm^3 volume per plant during the whole assay. Composition application was carried out once per week at a dose of […]. Based on a daily irrigation volume of 350 mL/plant, weekly application of the composition was 0.6 cm^3 per 7 days in 350 cm^3 of irrigation water per plant.

[1] = 25 mM NaCl irrigation, composition 0.6 mL per plant per day applied weekly

SMILES	toxicity relative to the composition, measured as mean lethal concentration (CL50) over Daphnia magna or as CSEO (Daphnia magna)	Foliar area (cm^2/plant) (pepper bell seedlings; [1])	Leaves per plant (pepper bell seedlings; [1])	reduction of number of leaves per plant (pepper bell seedlings; treatment with 25 mM NaCl)
O=[N+]([O-])c1ccc(O)cc1 [p-nitrofenol]	up to 125 times higher	–	–	–
[Cl-].[Na+] [25 mM NaCl, NaCl]	–	1050	50	about 27%
